The nature of series [1]: Stability in human liver microsomes assessed as parent compound remaining at 0.5 uM in presence of NADPH by MS/MS analysis. Format: ADME, Microsome. The note with it: read-out: Stability. On the technique in general: Liver microsomes are a subcellular fraction often used to study metabolism.
Series [2] in a line: Stability in rat liver microsomes assessed as parent compound remaining at 0.5 uM in presence of NADPH by MS/MS analysis. Format: ADME, Microsome. The note with it: read-out: Stability.
Series [3] can be described thus: Stability in mouse liver microsomes assessed as parent compound remaining at 0.5 uM in presence of NADPH by MS/MS analysis. The note with it: read-out: Stability. In kind it is ADME, Microsome.
Series [4] in a line: Permeability of compound at pH 7.4. The note with it: not told, read-out: permeability. Format: ADME.
Series [5] in a line: AUC in C57BL6 mouse at 2 mg/kg, iv qd administered as bolus dose after 24 hrs by LC-MS/MS analysis. In kind it is ADME, organism-based. The arrangement: time < 24 hr, dose 2 mg/kg, route intravenous. The note with it: in vivo.
Series [6] in a line: Clearance in C57BL6 mouse at 2 mg/kg, iv qd administered as bolus dose after 24 hrs by LC-MS/MS analysis. In kind it is ADME, organism-based. The note with it: in vivo.
Series [7] in a line: Volume of distribution at steady state in C57BL6 mouse at 2 mg/kg, iv qd administered as bolus dose after 24 hrs by LC-MS/MS analysis. Format: ADME, organism-based. The note with it: in vivo, read-out: Vdss.
Series [8] in a line: Cmax in C57BL6 mouse at 30 mg/kg, po qd via gavage after 24 hrs by LC-MS/MS analysis. Format: ADME, organism-based. Also on record: dose 30 mg/kg, route oral. The note with it: in vivo.
Series [9] in a line: Tmax in C57BL6 mouse at 30 mg/kg, po qd via gavage after 24 hrs by LC-MS/MS analysis. In kind it is ADME, organism-based. The note with it: in vivo.
Series [10] is described as follows: AUC in C57BL6 mouse at 30 mg/kg, po qd via gavage after 24 hrs by LC-MS/MS analysis. In kind it is ADME, organism-based. Also on record: time < 24 hr, dose 30 mg/kg, route oral. The note with it: in vivo.
The target of series [11] is T1, Nuclear receptor ROR-gamma (Mus musculus, UniProt P51450).
T1 sequence (P51450 whole entry): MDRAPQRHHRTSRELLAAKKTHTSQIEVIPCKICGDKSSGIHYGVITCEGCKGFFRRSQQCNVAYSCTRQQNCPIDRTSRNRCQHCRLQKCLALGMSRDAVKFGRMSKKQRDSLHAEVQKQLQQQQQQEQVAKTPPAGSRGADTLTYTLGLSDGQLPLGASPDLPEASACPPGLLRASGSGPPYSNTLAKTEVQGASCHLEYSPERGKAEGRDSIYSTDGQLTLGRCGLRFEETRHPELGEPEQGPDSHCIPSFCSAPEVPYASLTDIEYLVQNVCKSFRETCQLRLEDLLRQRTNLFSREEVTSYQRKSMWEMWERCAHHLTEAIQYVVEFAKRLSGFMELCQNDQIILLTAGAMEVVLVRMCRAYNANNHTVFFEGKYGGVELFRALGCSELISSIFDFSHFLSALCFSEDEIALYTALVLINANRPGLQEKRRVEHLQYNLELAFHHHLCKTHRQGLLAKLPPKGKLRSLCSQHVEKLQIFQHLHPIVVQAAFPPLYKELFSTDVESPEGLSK
Put plainly: Agonist activity at RORgammat in mouse whole blood assessed as induction of IL-17A expression. In kind it is tissue-based.

Series [12] is described as follows: Drug level in mouse MC38 cells allografted C57BL6 mouse blood at 10 mg/kg, po BID and measured after 24 hrs. Format: ADME, organism-based. The note with it: whole blood, read-out: Drug uptake.
A short description of series [13]: Half life in mouse hepatocytes. Format: ADME, cell-based, Hepatocyte.
Series [14] is described as follows: Drug metabolism in mouse hepatocytes assessed as UGT-mediated metabolism by measuring half life. In kind it is ADME, cell-based.

In the case of `CS(=O)(=O)N[C@H]1CC[C@H](C(=O)N2CC[C@@]3(S(=O)(=O)c4ccc(F)cc4)c4ccc(OCc5c(F)cccc5C(F)(F)F)cc4CC[C@@H]23)CC1`, the figures for the remaining at 0.5 µM in [1], in [2] and in series [3] were 2%, 30% and 41%, respectively.

With `O=C(N1CC[C@@]2(S(=O)(=O)c3ccc(F)cc3)c3ccc(OCc4c(F)cccc4C(F)(F)F)cc3CC[C@@H]12)C1(O)CCS(=O)(=O)CC1`, the remaining at 0.5 µM in [1] amounted to 1%; in [2], 4%; in [3] it was 51%.

Take `NC(=O)[C@H]1CC[C@H](C(=O)N2CC[C@@]3(S(=O)(=O)c4ccc(F)cc4)c4ccc(OCc5c(F)cccc5C(F)(F)F)cc4CC[C@@H]23)CC1`: the remaining at 0.5 µM stood at 17% in series [1] and 39% in series [2].

What is called AUC is the area under the concentration-time curve, a measure of exposure. Broadly, the clearance is the volume of plasma or blood freed of the substance per unit of time. A high value points to efficient removal. By Cmax is commonly meant the peak of the concentration-time curve. For orientation: Tmax means the time at which the peak concentration occurs. For orientation: EC50 means the midpoint of the concentration-response curve. Take `C[C@]1(C(=O)N2CC[C@@]3(S(=O)(=O)c4ccc(F)cc4)c4ccc(OCc5c(F)cccc5C(F)(F)F)cc4CC[C@@H]23)CC[C@H](C(=O)O)CC1`: the remaining at 0.5 µM in series [1] is 80%; in series [2], 48%; in series [3], 100%. In addition, in series [4], the Papp came out at 40.6 ×10⁻⁶ cm/s. Moreover, the AUC at 24 h in series [5] is 6.5 µM·h; in [10] it was 275 µM·h. The compound also registered a clearance in series [6] of 6.7 mL/min/kg. Further, the Vd in series [7] was determined as 1.1 L/kg. Besides, in series [8], the peak level (Cmax) was 61 µM. Further, the time of peak concentration (Tmax) in series [9] was 0.5 h. In [11], the EC50 was determined as 380 nM. The concentration at 24 h in series [12] turned out to be 0.1 µM.

Regarding `NC(=O)N1CCC(C(=O)N2CC[C@@]3(S(=O)(=O)c4ccc(F)cc4)c4ccc(OCc5c(F)cccc5C(F)(F)F)cc4CC[C@@H]23)CC1`, the remaining at 0.5 µM in series [1] worked out at 3%; in series [2], 33%; in [3] it was 57%.

For `O=C([C@H]1CC[C@H](c2nnn[nH]2)CC1)N1CC[C@@]2(S(=O)(=O)c3ccc(F)cc3)c3ccc(OCc4c(F)cccc4C(F)(F)F)cc3CC[C@@H]12`, the remaining at 0.5 µM in [1] was found to be 55%; in series [2] it was 67%; in series [3], 82%.

The half-life is how long it takes for the measured level to halve. For the compound `O=C(O)[C@H]1CC[C@H](C(=O)N2CC[C@@]3(S(=O)(=O)c4ccc(F)cc4)c4ccc(OCc5c(F)cccc5C(F)(F)F)cc4CC[C@@H]23)CC1`, the figures for the remaining at 0.5 µM in [1], in [2] and in [3] were 97%, 65% and 100%, respectively. The Papp in [4] worked out at 10.1 ×10⁻⁶ cm/s. Also, the AUC at 24 h in [5] was 5.4 µM·h; in series [10], 103 µM·h. In series [6], the clearance turned out to be 9.1 mL/min/kg. Further, the Vd in series [7] is 1.8 L/kg. In series [8], this compound came in with a Cmax of 38 µM. Besides, the Tmax in series [9] was 1 h. Besides, the half-life in [13] and in [14] was greater than 2 h throughout.

Regarding `O=C(CN1CCS(=O)(=O)CC1)N1CC[C@@]2(S(=O)(=O)c3ccc(F)cc3)c3ccc(OCc4c(F)cccc4C(F)(F)F)cc3CC[C@@H]12`, the figures for the remaining at 0.5 µM in series [1], in [2] and in series [3] were 1%, 14% and 14%, respectively.

As for `O=C(C1CCS(=O)(=O)CC1)N1CC[C@@]2(S(=O)(=O)c3ccc(F)cc3)c3ccc(OCc4c(F)cccc4C(F)(F)F)cc3CC[C@@H]12`, the figures for the remaining at 0.5 µM in [1], in series [2] and in series [3] were 1%, 18% and 52%, respectively.

Values taken from ChEMBL document CHEMBL4627376, “Substituted benzyloxytricyclic compounds as retinoic acid-related orphan receptor gamma t (RORγt) agonists” (Bioorg Med Chem Lett, 2020).
